Data from PubChem BioAssay AID268 (DTP/NCI, 2004).
Several values for one entry are separate records, joined by “and”; a condition that tells them apart may be missing. Equal values may be shown once.

Tested on: CD2F1 mice, P1798 lymphosarcoma sc, tumor weight T/C
Experiment: NCI In Vivo Anticancer Drug Screen. Data for tumor model P1798 Lymphosarcoma (subcutaneous) in CD2F1 (CDF1) mice
Conditions: endpoint: mean tumor weight, higher = larger tumour
Experimental: The antitumor activity of compounds was measured in mice bearing transplantable tumors. Survival or tumor size were measured and the results are expressed as the measurement made in the treated group (T) divided by the measurement made in the vehicle treated control group (C). The tumor model used in this assay is P1798 Lymphosarcoma (subcutaneous) in CD2F1 (CDF1) mice

[1] = dose: 12.5 mg/kg/injection, schedule: Q01DX005 (sc), vehicle: steriod suspending solution
[2] = dose: 12.5 mg/kg/injection, schedule: Q01DX010 (sc), vehicle: steriod suspending solution
[3] = dose: 25.0 mg/kg/injection, schedule: Q01DX005 (sc), vehicle: steriod suspending solution
[4] = dose: 25.0 mg/kg/injection, schedule: Q02DX010 (sc), vehicle: steriod suspending solution
[5] = dose: 50.0 mg/kg/injection, schedule: Q01DX005 (sc), vehicle: steriod suspending solution
[6] = dose: 50.0 mg/kg/injection, schedule: Q02DX010 (sc), vehicle: steriod suspending solution
[7] = dose: 30.0 mg/kg/injection, schedule: Q01DX010 (ip), vehicle: saline
[8] = dose: 60.0 mg/kg/injection, schedule: Q01DX010 (ip), vehicle: saline
[9] = dose: 0.25 mg/kg/injection, schedule: Q01DX010 (ip), vehicle: saline
[10] = dose: 50.0 mg/kg/injection, schedule: Q01DX010 (ip), vehicle: saline
[11] = dose: 100.0 mg/kg/injection, schedule: Q01DX010 (ip), vehicle: saline
[12] = dose: 200.0 mg/kg/injection, schedule: Q01DX010 (ip), vehicle: saline
[13] = dose: 400.0 mg/kg/injection, schedule: Q01DX010 (ip), vehicle: saline
[14] = dose: 0.5 mg/kg/injection, schedule: Q01DX010 (ip), vehicle: saline
[15] = dose: 25.0 mg/kg/injection, schedule: Q01DX010 (sc), vehicle: steriod suspending solution
[16] = dose: 50.0 mg/kg/injection, schedule: Q01DX010 (sc), vehicle: steriod suspending solution
[17] = dose: 125.0 mg/kg/injection, schedule: Q01DX010 (sc), vehicle: steriod suspending solution
[18] = dose: 250.0 mg/kg/injection, schedule: Q01DX010 (sc), vehicle: steriod suspending solution
[19] = dose: 500.0 mg/kg/injection, schedule: Q01DX010 (sc), vehicle: steriod suspending solution
[20] = dose: 100.0 mg/kg/injection, schedule: Q01DX010 (sc), vehicle: steriod suspending solution

## CC(=O)[C@@]1(O)CC[C@H]2[C@@H]3C[C@H](C)C4=CC(=O)C=C[C@]4(C)[C@@]3(F)[C@@H](O)C[C@@]21C
[1]
  T/C: 3 % of control
[2]
  T/C: 18 % of control and 41 % of control
[3]
  T/C: 3 % of control
[4]
  T/C: 98 % of control
[5]
  T/C: 2 % of control
[6]
  T/C: 93 % of control
dose: 100.0 mg/kg/injection, schedule: Q01DX005 (sc), vehicle: steriod suspending solution
  T/C: 1 % of control
dose: 100.0 mg/kg/injection, schedule: Q02DX010 (sc), vehicle: steriod suspending solution
  T/C: 98 % of control

## N#CCSc1ncnc2nc[nH]c12
dose: 7.5 mg/kg/injection, schedule: Q01DX010 (ip), vehicle: saline
  T/C: 87 % of control
dose: 15.0 mg/kg/injection, schedule: Q01DX010 (ip), vehicle: saline
  T/C: 56 % of control
[7]
  T/C: 97 % of control and 109 % of control
[8]
  T/C: 97 % of control and 108 % of control

## C[C@]12CC[C@H](O)C[C@@H]1CC[C@@H]1[C@@H]2C(=O)C[C@]2(C)C3=CC(=O)O[C@H]3C[C@@H]12
dose: 10.0 mg/kg/injection, schedule: Q01DX010 (sc), vehicle: steriod suspending solution
  T/C: 76 % of control and 83 % of control
dose: 20.0 mg/kg/injection, schedule: Q01DX010 (sc), vehicle: steriod suspending solution
  T/C: 97 % of control
dose: 40.0 mg/kg/injection, schedule: Q01DX010 (sc), vehicle: steriod suspending solution
  T/C: 87 % of control and 90 % of control
dose: 80.0 mg/kg/injection, schedule: Q01DX010 (sc), vehicle: steriod suspending solution
  T/C: 78 % of control and 85 % of control

## CC(=O)OC(C)(C)/C=C/C(=O)[C@](C)(O)[C@H]1[C@H](O)C[C@@]2(C)[C@@H]3CC=C4[C@@H](CC[C@H](O)C4(C)C)[C@]3(CO)C(=O)C[C@]12C
dose: 0.16 mg/kg/injection, schedule: Q01DX010 (ip), vehicle: saline
  T/C: 109 % of control
[9]
  T/C: 89 % of control
dose: 0.38 mg/kg/injection, schedule: Q01DX010 (ip), vehicle: saline
  T/C: 102 % of control
dose: 0.57 mg/kg/injection, schedule: Q01DX010 (ip), vehicle: saline
  T/C: 109 % of control

## C[C@]12CC[C@H](OC3OC(CO)C(O)C(O)C3O)C[C@H]1CC[C@@H]1[C@@H]2CC[C@]2(C)[C@@H](C3=CCOC3=O)CC[C@]12O (some centres undefined)
dose: 0.13 mg/kg/injection, schedule: Q01DX010 (ip), vehicle: saline
  T/C: 71 % of control
[9]
  T/C: 96 % of control

## O=c1cnn(C2OC(CO)C(O)C2O)c(=O)[nH]1 (centres undefined)
[10]
  T/C: 80 % of control
[11]
  T/C: 73 % of control
[12]
  T/C: 49 % of control
[13]
  T/C: 17 % of control

## C1CN1c1nc(N2CC2)nc(N2CC2)n1
dose: 0.06 mg/kg/injection, schedule: Q01DX010 (ip), vehicle: saline
  T/C: 114 % of control
[14]
  T/C: 29 % of control and 37 % of control

## C=C1C[C@H]2[C@@H]3C=C(C)C4=CC(=O)CC[C@]4(C)[C@H]3CC[C@]2(C)[C@@]1(OC(C)=O)C(C)=O
[2]
  T/C: 109 % of control and 116 % of control
[15]
  T/C: 84 % of control
[16]
  T/C: 120 % of control
dose: 125.0 mg/kg/injection, schedule: Q01DX001 (sc), vehicle: steriod suspending solution
  T/C: 87 % of control
[17]
  T/C: 124 % of control
dose: 125.0 mg/kg/injection, schedule: Q02DX005 (sc), vehicle: steriod suspending solution
  T/C: 117 % of control
dose: 250.0 mg/kg/injection, schedule: Q01DX001 (sc), vehicle: steriod suspending solution
  T/C: 151 % of control and 160 % of control
[18]
  T/C: 76 % of control
dose: 250.0 mg/kg/injection, schedule: Q02DX005 (sc), vehicle: steriod suspending solution
  T/C: 110 % of control
dose: 500.0 mg/kg/injection, schedule: Q01DX001 (sc), vehicle: steriod suspending solution
  T/C: 74 % of control and 80 % of control
[19]
  T/C: 85 % of control
dose: 500.0 mg/kg/injection, schedule: Q02DX005 (sc), vehicle: steriod suspending solution
  T/C: 96 % of control
dose: 1000.0 mg/kg/injection, schedule: Q01DX001 (sc), vehicle: steriod suspending solution
  T/C: 100 % of control and 112 % of control

## NC(CCSCc1ccc(N(CCCl)CCCl)cc1)C(=O)O (centres undefined)
dose: 4.5 mg/kg/injection, schedule: Q01DX010 (ip), vehicle: saline
  T/C: 108 % of control
dose: 9.0 mg/kg/injection, schedule: Q01DX010 (ip), vehicle: saline
  T/C: 86 % of control
dose: 18.0 mg/kg/injection, schedule: Q01DX010 (ip), vehicle: saline
  T/C: 98 % of control
dose: 36.0 mg/kg/injection, schedule: Q01DX010 (ip), vehicle: saline
  T/C: 93 % of control

## CC(=O)NCCCCCCCCCCNC(C)=O
[10]
  T/C: 96 % of control
[11]
  T/C: 113 % of control
[12]
  T/C: 93 % of control
[13]
  T/C: 76 % of control

## C[C@H]1C[C@@H]2[C@H]([C@@H](O)C[C@@]3(C)[C@H]2CC[C@]3(O)C(=O)CO)[C@@]2(C)C=CC(=O)C=C12
[16]
  T/C: 7 % of control

## CCC(=O)O[C@H]1CC[C@H]2[C@@H]3CC[C@H]4CC(=O)[C@H](C)C[C@]4(C)[C@H]3CC[C@]12C
dose: 15.6 mg/kg/injection, schedule: Q01DX010 (sc), vehicle: steriod suspending solution
  T/C: 110 % of control
dose: 31.3 mg/kg/injection, schedule: Q01DX010 (sc), vehicle: steriod suspending solution
  T/C: 120 % of control
dose: 62.5 mg/kg/injection, schedule: Q01DX010 (sc), vehicle: steriod suspending solution
  T/C: 112 % of control
[17]
  T/C: 91 % of control and 77 % of control
[18]
  T/C: 88 % of control
[19]
  T/C: 96 % of control
dose: 1000.0 mg/kg/injection, schedule: Q01DX010 (sc), vehicle: steriod suspending solution
  T/C: 88 % of control

## CCOC(C)C(/C=N/NC(N)=S)=NNC(N)=S (centres undefined)
[7]
  T/C: 99 % of control
[8]
  T/C: 100 % of control
dose: 120.0 mg/kg/injection, schedule: Q01DX010 (ip), vehicle: saline
  T/C: 93 % of control

## CC1CCC2C(C)C3C(CC4C5CC=C6CC(OC7OC(CO)C(O)C(OC8OC(CO)C(O)C(O)C8O)C7OC7OC(C)C(O)C(O)C7O)CCC6(C)C5CCC43C)N2C1 (centres undefined)
[15]
  T/C: 65 % of control
[16]
  T/C: 44 % of control
[20]
  T/C: 16 % of control
dose: 200.0 mg/kg/injection, schedule: Q01DX010 (sc), vehicle: steriod suspending solution
  T/C: 9 % of control and 26 % of control
dose: 400.0 mg/kg/injection, schedule: Q01DX010 (sc), vehicle: steriod suspending solution
  T/C: 30 % of control

## CC(=O)NC1=C(N2CC2)C(=O)C(NC(C)=O)=C(N2CC2)C1=O
[9]
  T/C: 86 % of control
[14]
  T/C: 45 % of control

## C[C@]12C=CC(=O)C=C1CC[C@H]1[C@@H]3C[C@@H](O)[C@](O)(C(=O)CO)[C@@]3(C)C[C@H](O)[C@@]12F
[1]
  T/C: 16 % of control
dose: 12.5 mg/kg/injection, schedule: Q03DX004 (sc), vehicle: steriod suspending solution
  T/C: 26 % of control
[3]
  T/C: 2 % of control
[4]
  T/C: 115 % of control
dose: 25.0 mg/kg/injection, schedule: Q03DX004 (sc), vehicle: steriod suspending solution
  T/C: 6 % of control
[5]
  T/C: 2 % of control
[6]
  T/C: 122 % of control
dose: 50.0 mg/kg/injection, schedule: Q03DX004 (sc), vehicle: steriod suspending solution
  T/C: 5 % of control

## CCCCCC(=O)O[C@]1(C(C)=O)CC[C@H]2[C@@H]3CCC4=CC(=O)CC[C@]4(C)[C@H]3CC[C@@]21C
[18]
  T/C: 110 % of control
dose: 375.0 mg/kg/injection, schedule: Q01DX010 (sc), vehicle: steriod suspending solution
  T/C: 106 % of control
[19]
  T/C: 114 % of control
dose: 750.0 mg/kg/injection, schedule: Q01DX010 (sc), vehicle: steriod suspending solution
  T/C: 109 % of control

## OCC1OC(n2cnc3c(=S)nc[nH]c32)C(O)C1O (centres undefined)
dose: 10.0 mg/kg/injection, schedule: Q01DX010 (ip), vehicle: saline
  T/C: 65 % of control
dose: 20.0 mg/kg/injection, schedule: Q01DX010 (ip), vehicle: saline
  T/C: 54 % of control and 57 % of control
dose: 40.0 mg/kg/injection, schedule: Q01DX010 (ip), vehicle: saline
  T/C: 57 % of control and 61 % of control
dose: 80.0 mg/kg/injection, schedule: Q01DX010 (ip), vehicle: saline
  T/C: 40 % of control and 60 % of control
dose: 160.0 mg/kg/injection, schedule: Q01DX010 (ip), vehicle: saline
  T/C: 61 % of control

## Cc1nc(N2CC2)nc(N2CC2)c1[N+](=O)[O-]
dose: 1.25 mg/kg/injection, schedule: Q01DX010 (ip), vehicle: saline
  T/C: 63 % of control and 82 % of control
dose: 2.5 mg/kg/injection, schedule: Q01DX010 (ip), vehicle: saline
  T/C: 73 % of control and 84 % of control

## C[C@]12C=CC(=O)C=C1CC[C@@H]1[C@@H]2CC[C@]2(C)OC(=O)CC[C@@H]12
[2]
  T/C: 107 % of control and 112 % of control
[15]
  T/C: 101 % of control and 77 % of control
[20]
  T/C: 111 % of control and 115 % of control
